In BindingDB's records for patent US20250289799 (Jiangsu Yahong Meditech Co., 2025):

Molecular target: Ubiquitin carboxyl-terminal hydrolase 1/WD repeat-containing protein 48 (Homo sapiens, UniProt O94782+Q8TAF3)
Experiment: In Vitro USP1  Inhibitory Activity
Protocol: Experimental Methods1) Preparation of 1× assay buffer: 1× assay buffer (modified Tris buffer) was prepared;2) Compound dilution: The compound was transferred to the assay plate by Echo.

Sequence of Ubiquitin carboxyl-terminal hydrolase 1/WD repeat-containing protein 48 (O94782 whole entry): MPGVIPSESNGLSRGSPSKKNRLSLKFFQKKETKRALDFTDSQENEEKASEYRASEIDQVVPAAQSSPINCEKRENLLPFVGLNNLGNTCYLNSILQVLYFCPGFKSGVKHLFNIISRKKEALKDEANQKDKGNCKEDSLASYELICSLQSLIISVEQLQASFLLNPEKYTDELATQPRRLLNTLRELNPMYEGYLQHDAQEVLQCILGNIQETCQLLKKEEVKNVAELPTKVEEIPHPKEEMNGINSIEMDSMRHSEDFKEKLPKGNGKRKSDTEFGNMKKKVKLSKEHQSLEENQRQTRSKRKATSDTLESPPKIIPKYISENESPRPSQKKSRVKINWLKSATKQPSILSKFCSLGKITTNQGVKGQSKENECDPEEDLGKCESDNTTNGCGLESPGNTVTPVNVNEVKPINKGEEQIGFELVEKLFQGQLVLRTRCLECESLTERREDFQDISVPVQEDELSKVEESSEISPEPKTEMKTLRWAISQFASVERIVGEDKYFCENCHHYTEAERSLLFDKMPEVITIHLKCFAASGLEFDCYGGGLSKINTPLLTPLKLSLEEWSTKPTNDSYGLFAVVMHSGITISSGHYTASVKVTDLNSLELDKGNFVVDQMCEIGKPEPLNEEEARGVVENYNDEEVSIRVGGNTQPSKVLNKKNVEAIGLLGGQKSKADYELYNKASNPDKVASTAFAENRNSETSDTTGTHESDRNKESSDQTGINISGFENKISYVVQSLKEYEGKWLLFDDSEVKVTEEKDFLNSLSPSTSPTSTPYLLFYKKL
Sequence of Ubiquitin carboxyl-terminal hydrolase 1/WD repeat-containing protein 48 (Q8TAF3 whole entry): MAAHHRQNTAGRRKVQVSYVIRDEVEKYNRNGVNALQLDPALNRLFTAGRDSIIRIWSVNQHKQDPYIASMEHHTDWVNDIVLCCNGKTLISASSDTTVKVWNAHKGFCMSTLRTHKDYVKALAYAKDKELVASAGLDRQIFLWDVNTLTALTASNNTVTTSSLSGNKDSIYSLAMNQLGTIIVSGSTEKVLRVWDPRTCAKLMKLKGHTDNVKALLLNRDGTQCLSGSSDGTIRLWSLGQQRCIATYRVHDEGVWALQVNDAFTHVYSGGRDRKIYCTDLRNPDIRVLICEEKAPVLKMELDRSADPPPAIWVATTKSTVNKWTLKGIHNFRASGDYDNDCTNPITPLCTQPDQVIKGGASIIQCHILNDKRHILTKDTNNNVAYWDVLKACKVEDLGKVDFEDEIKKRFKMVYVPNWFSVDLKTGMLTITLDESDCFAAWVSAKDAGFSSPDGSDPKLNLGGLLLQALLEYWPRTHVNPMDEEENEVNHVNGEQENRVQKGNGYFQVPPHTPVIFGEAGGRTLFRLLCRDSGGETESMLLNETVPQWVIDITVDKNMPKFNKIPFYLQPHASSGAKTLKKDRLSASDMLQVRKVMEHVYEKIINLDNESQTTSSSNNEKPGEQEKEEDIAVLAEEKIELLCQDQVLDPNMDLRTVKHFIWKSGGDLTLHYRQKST

Compound	IC50
COc1cnc(-c2ccccc2C(C)C)nc1N(C)Cc1ccc(-c2ccccn2)cc1 [US20250289799, Example 1]	26 nM
COc1cnc(-c2ccccc2C(C)C)nc1N(C)CC1CCN(c2ccccn2)CC1 [US20250289799, Example 2]	14 nM
COc1cnc(-c2ccccc2C(C)C)nc1NCC1CCN(c2ccccn2)CC1 [US20250289799, Example 5]	7.6 nM
COc1ncnc(C2CC2)c1-c1ncc2c(n1)N(CC1CCN(c3ccccn3)CC1)CCO2 [US20250289799, Example 10]	564 nM
COc1cnc(-c2ccccc2C(C)C)nc1NCc1ccc(-c2nccn3ccnc23)cc1 [US20250289799, Example 11]	22 nM
Cc1cc(C(F)(F)F)nn1-c1ccc(CN2C(=O)COc3cnc(-c4ccccc4C(C)C)nc32)cc1 [US20250289799, Example 15]	6.8 nM
CC(C)c1ccccc1-c1ncc2c(n1)N(CC1CCN(c3nc(C(F)(F)F)cn3C)CC1)C(=O)CO2 [US20250289799, Example 24]	8.8 nM
CC(C)c1ccccc1-c1ncc(C(F)(F)F)c(NCC2CCN(c3nc(C(F)(F)F)cn3C)CC2)n1 [US20250289799, Example 25]	3.7 nM
CC(C)c1ccccc1-c1nc(NCc2ccc(-c3ccccn3)cc2)c2[nH]ccc2n1 [US20250289799, Example 36]	22.4 nM
COc1cnc(-c2ccccc2C(C)C)nc1NCc1ccc2c(c1)CN(C1CCC(=O)NC1=O)C2=O (stereo unspecified) [US20250289799, Example 41]	1260 nM
COc1cnc(-c2ccccc2C(C)C)nc1N(C)CC1CCC(c2ccccn2)CC1 (stereo unspecified) [US20250289799, Example 61]	11 nM
COc1cnc(-c2ccccc2C(C)C)nc1N(C)CC1CCN(c2nc(C(F)(F)F)cn2C)CC1 [US20250289799, Example 62]	2.1 nM
COc1cnc(-c2ccccc2C(C)C)nc1NCC1CCC(c2ccccn2)CC1 (stereo unspecified) [US20250289799, Example 63]	3.3 nM
COc1cnc(-c2ccccc2C(C)C)nc1NCc1ccc(-c2ccccn2)cc1 [US20250289799, Example 64]	3.7 nM
COc1cnc(-c2ccccc2C(C)C)nc1NCC1CCN(c2nc(C(F)(F)F)cn2C)CC1 [US20250289799, Example 65]	2.1 nM
COc1cnc(-c2ccccc2C(C)C)nc1NCc1ccc(-c2ccc(C)cn2)cc1 [US20250289799, Example 66]	5.6 nM
COc1cnc(-c2ccccc2C(C)C)nc1NCc1ccc(OCc2ccccn2)cc1 [US20250289799, Example 67]	5.3 nM
CCOCCOc1ccc(CNc2nc(-c3ccccc3C(C)C)ncc2OC)cc1 [US20250289799, Example 68]	3.2 nM
COc1cc(CNc2nc(-c3ccccc3C(C)C)ncc2OC)ccc1-n1nc(C(F)(F)F)cc1C [US20250289799, Example 69]	9.2 nM
CC(C)Oc1cnc(-c2ccccc2C(C)C)nc1N(C)CC1CCN(c2nc(C(F)(F)F)cn2C)CC1 [US20250289799, Example 70]	19.4 nM
CC(C)Oc1cnc(-c2ccccc2C(C)C)nc1N(C)Cc1ccc(-c2nc(C(F)(F)F)cn2C)cc1 [US20250289799, Example 71]	9.9 nM
CC(C)Oc1cnc(-c2ccccc2C(C)C)nc1NCC1CCN(c2nc(C(F)(F)F)cn2C)CC1 [US20250289799, Example 72]	6.1 nM
CC(C)Oc1cnc(-c2ccccc2C(C)C)nc1NCC12CCC(c3ccc(C(F)(F)F)cn3)(CC1)CC2 [US20250289799, Example 74]	873 nM
CC(C)c1ccccc1-c1ncc(C(F)(F)F)c(NCC2CCN(c3nc(C(F)(F)F)cn3C)CC2)n1 [US20250289799, Example 75]	3.7 nM
CC(C)c1ccccc1-c1ncc(C(F)(F)F)c(NCC2CCN(c3ccccn3)CC2)n1 [US20250289799, Example 76]	30.1 nM
CC(C)c1ccccc1-c1nc(NCc2ccc3c(c2)CCN(C)C3=O)c2occc2n1 [US20250289799, Example 77]	28 nM
CC(C)c1ccccc1-c1nc(NCc2ccc3c(c2)CCN(C(C)C)C3=O)c2occc2n1 [US20250289799, Example 78]	6.4 nM
CCOCCOc1ccc(CNc2nc(-c3ccccc3C(C)C)nc3ccoc23)cc1 [US20250289799, Example 79]	4.5 nM
COC1CC(Oc2ccc(CNc3nc(-c4ccccc4C(C)C)nc4ccoc34)cc2)C1 (stereo unspecified) [US20250289799, Example 80]	26 nM

Continued, values first:

IC50	Compound
2.8 nM	COc1cnc(-c2ccccc2C(C)C)nc1N(C)Cc1ccc(-c2nc(C(F)(F)F)cn2C)cc1 [US20250289799, Example 3]
1.2 nM	COc1cnc(-c2ccccc2C(C)C)nc1NCc1ccc(-c2nc(C(F)(F)F)cn2C)cc1 [US20250289799, Example 4]
4.5 nM	COc1cnc(-c2ccccc2C(C)C)nc1NCc1ccc(-n2nc(C(F)(F)F)cc2C)cc1 [US20250289799, Example 7]
1.4 nM	COc1cnc(-c2c(OC)ncnc2C2CC2)nc1N(C)Cc1ccc(-c2nc(C(F)(F)F)cn2C)cc1 [US20250289799, Example 8]
35 nM	COc1ncnc(C2CC2)c1-c1ncc2c(n1)N(Cc1ccc(-c3ccccn3)cc1)CCO2 [US20250289799, Example 9]
3.9 nM	CC(C)c1ccccc1-c1ncc(C(F)(F)F)c(NCc2ccc(-c3nc(C(F)(F)F)cn3C)cc2)n1 [US20250289799, Example 17]
24 nM	COc1cnc(-c2c(OC)ncnc2C2CC2)nc1N(C)Cc1ccc(-c2ccccn2)cc1 [US20250289799, Example 19]
91.5 nM	COc1ncnc(C2CC2)c1-c1ncc2c(n1)N(CC1CCN(c3nc(C(F)(F)F)cn3C)CC1)CCO2 [US20250289799, Example 20]
4.6 nM	COc1cnc(-c2c(OC)ncnc2C2CC2)nc1NCc1ccc(-n2nc(C(F)(F)F)cc2C)cc1 [US20250289799, Example 26]
4.8 nM	COc1cnc(-c2c(OC)ncnc2C2CC2)nc1NCc1ccc(-c2nc(C(F)(F)F)cn2C)cc1 [US20250289799, Example 29]
37 nM	COc1ncnc(C2CC2)c1-c1ncc2c(n1)N(CC1CCN(c3nc(C(F)(F)F)cn3C)CC1)C(=O)CO2 [US20250289799, Example 30]
2.8 nM	CC(C)c1ccccc1-c1nc(NCc2ccc(-c3ccccn3)cc2)c2occc2n1 [US20250289799, Example 32]
1.2 nM	CC(C)c1ccccc1-c1nc(NCc2ccc(-c3nc(C(F)(F)F)cn3C)cc2)c2occc2n1 [US20250289799, Example 33]
9.6 nM	COc1ncnc(C2CC2)c1-c1nc(NCc2ccc(-c3nc(C(F)(F)F)cn3C)cc2)c2occc2n1 [US20250289799, Example 35]
51 nM	COc1ncnc(C2CC2)c1-c1nc(NCc2ccc(-c3ccccn3)cc2)c2[nH]ccc2n1 [US20250289799, Example 37]
2.3 nM	CC(C)c1ccccc1-c1nc(NCc2ccc(-c3nc(C(F)(F)F)cn3C)cc2)c2ncccc2n1 [US20250289799, Example 40]
5.2 nM	COc1ncnc(C2CC2)c1-c1nc(NCc2ccc(-n3nc(C(F)(F)F)cc3C)cc2)c2occc2n1 [US20250289799, Example 50]
4.4 nM	Cc1cc(C(F)(F)F)nn1-c1ccc(CNc2nc(-c3ccccc3C(C)C)nc3ccoc23)cc1 [US20250289799, Example 57]
3.6 nM	CC(C)Oc1cnc(-c2ccccc2C(C)C)nc1NCc1ccc(-c2nc(C(F)(F)F)cn2C)cc1 [US20250289799, Example 73]

IC50	Compound
3.7 nM	COc1cc(-c2nc(C(F)(F)F)cn2C)ccc1CNc1nc(-c2ccccc2C(C)C)nc2ccoc12 [US20250289799, Example 81]
1.7 nM	COc1cc(CNc2nc(-c3ccccc3C(C)C)nc3ccoc23)ccc1-c1nc(C(F)(F)F)cn1C [US20250289799, Example 82]
4.4 nM	COc1cc(-n2nc(C(F)(F)F)cc2C)ccc1CNc1nc(-c2ccccc2C(C)C)nc2ccoc12 [US20250289799, Example 83]
9 nM	COc1cc(CNc2nc(-c3ccccc3C(C)C)nc3ccoc23)ccc1-n1nc(C(F)(F)F)cc1C [US20250289799, Example 84]
0.47 nM	C#Cc1cnc(-c2ccccc2C(C)C)nc1NCc1ccc(-c2nc(C(F)(F)F)cn2C)cc1 [US20250289799, Example 85]
1.1 nM	CC(C)c1ccccc1-c1ncc(OC(F)F)c(NCc2ccc(-c3nc(C(F)(F)F)cn3C)cc2)n1 [US20250289799, Example 86]
6.2 nM	CC(C)c1ccccc1-c1ncc(N2CCOCC2)c(NCc2ccc(-c3nc(C(F)(F)F)cn3C)cc2)n1 [US20250289799, Example 87]
10 nM	CC(C)c1ccccc1-c1ncc(N2CCN(C)CC2)c(NCc2ccc(-c3nc(C(F)(F)F)cn3C)cc2)n1 [US20250289799, Example 88]
1.3 nM	COC(=O)Cc1cnc(-c2ccccc2C(C)C)nc1NCc1ccc(-c2nc(C(F)(F)F)cn2C)cc1 [US20250289799, Example 91]
3.3 nM	COc1cnc(-c2c(OC)ncnc2C2CC2)nc1N(C)CC1CCN(c2nc(C(F)(F)F)cn2C)CC1 [US20250289799, Example 92]
1.5 nM	COc1cnc(-c2c(OC)ncnc2C2CC2)nc1N(C)Cc1ccc(-c2nc(C(F)(F)F)cn2C(C)C)cc1 [US20250289799, Example 93]
6.5 nM	COc1cnc(-c2c(OC)ncnc2C2CC2)nc1NCc1ccc(-c2ccccn2)cc1 [US20250289799, Example 94]
8.4 nM	COc1cnc(-c2c(OC)ncnc2C2CC2)nc1NCC1CCN(c2nc(C(F)(F)F)cn2C)CC1 [US20250289799, Example 95]
4.8 nM	COc1cnc(-c2c(OC)ncnc2C2CC2)nc1NCc1ccc(-c2nc(C(F)(F)F)cn2C)cc1 [US20250289799, Example 96]
263 nM	COc1cnc(-c2c(OC)ncnc2C2CC2)nc1NCc1ccc2c(c1)CCN(C(C)C)C2=O [US20250289799, Example 97]
144 nM	COc1cnc(-c2c(OC)ncnc2C2CC2)nc1NCc1ccc(OCc2ccccn2)cc1 [US20250289799, Example 98]
15.1 nM	CCOCCOc1ccc(CNc2nc(-c3c(OC)ncnc3C3CC3)ncc2OC)cc1 [US20250289799, Example 99]
4.1 nM	COc1cc(-c2nc(C(F)(F)F)cn2C)ccc1CNc1nc(-c2c(OC)ncnc2C2CC2)ncc1OC [US20250289799, Example 100]
